Patent US8835469B2 (Cadila Healthcare Limited, priority 2009, dated 2014)

Experiments:
Male C57 mice = assay: Oral glucose tolerance test (OGTT), overnight fasted; type: in vivo; conditions: for % change in glucose levels Vs Control: treated at −30 min, oral glucose load 3 g/kg at 0 min; for % change in glucose levels Vs Control, Mean: Mean over the time points, oral glucose load 3 g/kg
Method: Effect of Glucokinase Activators (GKAs) of the Present Invention on Glucose Reduction Determined by Oral Glucose Tolerence Test (OGTT):
Male C57 mice, aged 8-10 weeks were fasted overnight and subjected to the treatment of selected GK activator at time denoted as −30 min. At time 0 min, mice were given oral glucose load of 3 g/kg, and the glucose excursion was observed upto 120 min. The percentage change against the change in glucose levels of control are mentioned in the table 2.

glucokinase (GK) enzyme = target: T1, glucokinase (GK) enzyme (Homo sapiens, UniProt P35557); assay: In-vitro glucokinase (GK) activation assay (coupled with glucose-6-phosphate dehydrogenase, absorbance at 340); type: biochemical; conditions: glucose 2.5 mM; for activity at 0.1 µM / activity at 1 µM / activity at 5 µM / activity at 10 µM: read-out: % of GK activity wrt DMSO; for EC50: GK enzyme 0.2 units, ATP 1 mM
T1 sequence (P35557 1-465): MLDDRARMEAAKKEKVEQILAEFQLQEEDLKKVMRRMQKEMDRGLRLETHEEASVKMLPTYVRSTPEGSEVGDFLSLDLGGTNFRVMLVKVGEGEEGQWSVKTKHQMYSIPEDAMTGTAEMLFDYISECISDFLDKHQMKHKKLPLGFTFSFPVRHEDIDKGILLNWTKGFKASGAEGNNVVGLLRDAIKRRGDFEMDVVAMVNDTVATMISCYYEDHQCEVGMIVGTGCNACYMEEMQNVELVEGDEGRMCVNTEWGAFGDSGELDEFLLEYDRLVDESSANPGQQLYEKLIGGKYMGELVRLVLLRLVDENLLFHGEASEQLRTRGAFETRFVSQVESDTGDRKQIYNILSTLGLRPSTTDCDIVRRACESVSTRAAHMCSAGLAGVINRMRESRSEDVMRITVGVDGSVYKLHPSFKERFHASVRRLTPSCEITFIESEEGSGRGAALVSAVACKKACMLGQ
Method: The compound of the invention was incubated with glucokinase (GK) enzyme (0.2 units) for 10 minutes in assay buffer at 26° C. After incubation, addition of glucose-6-phosphate dehydrogenase (2.5 units), ATP (1 mM) and glucose (2.5 mM). Absorbance is measured at 340 nm for 15 minutes with 10 second interval using UV transparent plate in kinetic mode on Spectramax-190 at 30° C.

SMILES | % change in glucose levels Vs Control (Male C57 mice; 0 min Vs −30 min) | % change in glucose levels Vs Control (Male C57 mice; 30 min Vs −30 min) | % change in glucose levels Vs Control (Male C57 mice; 60 min Vs −30 min) | % change in glucose levels Vs Control (Male C57 mice; 120 min Vs −30 min) | % change in glucose levels Vs Control, Mean (Male C57 mice) | activity at 0.1 µM (glucokinase (GK) enzyme; 0.1 uM compound) | activity at 1 µM (glucokinase (GK) enzyme; 1 uM compound) | activity at 5 µM (glucokinase (GK) enzyme; 5 uM compound) | activity at 10 µM (glucokinase (GK) enzyme; 10 uM compound) | EC50 (glucokinase (GK) enzyme) | % of GK activity wrt DMSO (glucokinase (GK) enzyme; 0.1 uM compound) | % of GK activity wrt DMSO (glucokinase (GK) enzyme; 1 uM compound) | % of GK activity wrt DMSO (glucokinase (GK) enzyme; 5 uM compound) | % of GK activity wrt DMSO (glucokinase (GK) enzyme; 10 uM compound)
Cc1csc(NC(=O)c2cc(Oc3ccc(-c4nnc(C)o4)cc3)cc(OC3CCN(C)C3=O)c2)n1 (stereo not drawn) [Example 13, 3-(4-(5-Methyl-1,3,4-oxadiazol-2-yl)phenoxy)-5-(1-methyl-2-oxopyrrolidin-3-yloxy)-N-(4-methylthiazol-2-yl)benzamide] | −38.7 ± 3.5% | −34.5 ± 9.3% | −48.2 ± 7.5% | −60.5 ± 4.5% | −45.5% | 234% | 302% | 320% | 318% | 74 nM | – | – | – | –
Cc1nnc(-c2ccc(Oc3cc(OC4CCN(C)C4=O)cc(C(=O)Nc4nc(-c5ccccc5)cs4)c3)cc2)o1 (stereo not drawn) [Example 37, 3-(4-(5-Methyl-1,3,4-oxadiazol-2-yl)phenoxy)-5-((1-methyl-2-oxopyrrolidin-3-yl)oxy)-N-(4-phenylthiazol-2-yl)benzamide] | 11.9 ± 8.2% | −26.5 ± 12.8% | −43.5 ± 3.8% | −24.9 ± 5.3% | −17.0% | 107% | 151% | 290% | 329% | – | – | – | – | –
Cc1nnc(-c2ccc(Oc3cc(O[C@H]4CCN(C)C4=O)cc(C(=O)Nc4nccs4)c3)cc2)o1 [Example 68, (S)-3-(4-(5-Methyl-1,3,4-oxadiazol-2-yl)phenoxy)-5-((1-methyl-2-oxopyrrolidin-3-yl)oxy)-N-(thiazol-2-yl)benzamide] | −46.7 ± 0.8% | −25.6 ± 7.2% | −51.5 ± 4.9% | −58.2 ± 6.7% | −46.6% | 144% | 238% | 255% | 271% | 34 nM | – | – | – | –
Cc1nnc(-c2ccc(Oc3cc(O[C@H]4CCN(C)C4=O)cc(C(=O)Nc4ncc(C#N)s4)c3)cc2)o1 [Example 69, (S)-(5-cyanothiazol-2-yl)-3-(4-(5-methyl-1,3,4-oxadiazol-2-yl)phenoxy)-5-((1-methyl-2-oxopyrrolidin-3-yl)oxy)benzamide] | −58.6 ± 5.6% | −91.2 ± 1.3% | −84.4 ± 0.9% | −72.9 ± 5.6% | −75.2% | – | – | – | – | – | 116.7% | 170.1% | 249.2% | 255.3%
Cc1nnc(-c2ccc(Oc3cc(O[C@@H]4CCN(C)C4=O)cc(C(=O)Nc4nccs4)c3)cc2)o1 [Example 77, (R)-3-(4-(5-methyl-1,3,4-oxadiazol-2-yl)phenoxy)-5-((1-methyl-2-oxopyrrolidin-3-yl)oxy)-N-(thiazol-2-yl)benzamide] | −4.8 ± 7.5% | −15.1 ± 6.6% | −13.9 ± 7.3% | −22.0 ± 3.3% | −11.2% | 112% | 141% | 230% | 261% | 356 nM | – | – | – | –
